From ChEMBL document CHEMBL3763031, “Design, synthesis and biological evaluation of monobactams as antibacterial agents against gram-negative bacteria” (2016)
Converted amounts (≈) assume the structure as drawn.

Key:
Pseudomonas aeruginosa [1] = assay: Antimicrobial activity against Pseudomonas aeruginosa 27853 after 18 hrs by microdilution method in presence of 40 uM iron; assay type: functional
Pseudomonas aeruginosa [2] = assay: Antibacterial activity against BL positive Pseudomonas aeruginosa PAO1 after 18 hrs by agar dilution assay; assay type: functional; conditions: PAO1, 18 h
Escherichia coli [3] = assay: Antibacterial activity against ESBL negative Escherichia coli 1515 after 18 hrs by agar dilution assay; assay type: functional; conditions: Escherichia coli, 1515, 18 h
Klebsiella pneumoniae [4] = assay: Antibacterial activity against ESBL negative Klebsiella pneumoniae 09-8 after 18 hrs by agar dilution assay; assay type: functional; conditions: 09-8, 18 h
Klebsiella aerogenes = assay: Antibacterial activity against beta-lactamase producing Enterobacter aerogenes 45102 after 18 hrs by agar dilution assay; assay type: functional; conditions: Klebsiella aerogenes, 45102, 18 h
Pseudomonas aeruginosa [5] = assay: Antimicrobial activity against Pseudomonas aeruginosa 27853 after 18 hrs by microdilution method in presence of 4 uM iron; assay type: functional
Serratia marcescens = assay: Antibacterial activity against beta-lactamase producing Serratia marcescens 41002 after 18 hrs by agar dilution assay; assay type: functional; conditions: Serratia marcescens, 41002, 18 h
Pseudomonas aeruginosa [6] = assay: microbe, parasite or virus in culture; conditions: Pseudomonas aeruginosa, 27853, 18 h
Description: Antimicrobial activity against Pseudomonas aeruginosa 27853 after 18 hrs by microdilution method in absence of iron

Klebsiella pneumoniae [7] = assay: Antibacterial activity against NDM-1 positive Klebsiella pneumoniae BAA-2146 after 18 hrs by agar dilution assay; assay type: functional; conditions: BAA-2146, 18 h
Pseudomonas aeruginosa [8] = assay: Antibacterial activity against BL positive Pseudomonas aeruginosa 09-14 after 18 hrs by agar dilution assay; assay type: functional; conditions: 09-14, 18 h
Pseudomonas aeruginosa [9] = assay: Antimicrobial activity against Pseudomonas aeruginosa PAO1 after 18 hrs by microdilution method in presence of 0.4 uM iron; assay type: functional
Escherichia coli [10] = assay: Antibacterial activity against ESBL negative Escherichia coli 09-20 after 18 hrs by agar dilution assay; assay type: functional; conditions: 09-20, 18 h
Enterobacter cloacae = assay: Antibacterial activity against beta-lactamase producing Enterobacter cloacae 45301 after 18 hrs by agar dilution assay; assay type: functional; conditions: Enterobacter cloacae, 45301, 18 h
Pseudomonas aeruginosa [11] = assay: Antimicrobial activity against Pseudomonas aeruginosa 27853 after 18 hrs by microdilution method in presence of 0.4 uM iron; assay type: functional
Klebsiella pneumoniae [12] = assay: Antibacterial activity against ESBL positive Klebsiella pneumoniae 09-25 after 18 hrs by agar dilution assay; assay type: functional; conditions: 09-25, 18 h
Pseudomonas aeruginosa [13] = assay: Antimicrobial activity against Pseudomonas aeruginosa PAO1 after 18 hrs by microdilution method in presence of 4 uM iron; assay type: functional
Pseudomonas aeruginosa [14] = assay: Antimicrobial activity against Pseudomonas aeruginosa PAO1 after 18 hrs by microdilution method in absence of iron; conditions: PAO1, 18 h
Citrobacter freundii = assay: Antibacterial activity against beta-lactamase producing Citrobacter freundii 43864 after 18 hrs by agar dilution assay; assay type: functional; conditions: Citrobacter freundii, 43864, 18 h
Proteus mirabilis = assay: Antibacterial activity against beta-lactamase producing Proteus mirabilis 09-1 after 18 hrs by agar dilution assay; assay type: functional; conditions: 09-1, 18 h
Salmonella typhi = assay: Antibacterial activity against beta-lactamase producing Salmonella typhi H901 after 18 hrs by agar dilution assay; assay type: functional, Salmonella enterica subsp. enterica serovar Typhi; conditions: Salmonella enterica, H901, 18 h
Providencia rettgeri = assay: Antibacterial activity against Providencia rettgeri 31052 after 18 hrs by agar dilution assay; assay type: functional; conditions: Providencia rettgeri, 31052, 18 h
Klebsiella pneumoniae [15] = assay: Antibacterial activity against ESBL positive Klebsiella pneumoniae 700603 after 18 hrs by agar dilution assay; assay type: functional; conditions: Klebsiella pneumoniae, 700603, 18 h
Escherichia coli [16] = assay: Antibacterial activity against Escherichia coli BL21 by microbroth dilution assay; assay type: functional
Escherichia coli [17] = assay: Selectivity ratio of MIC for Escherichia coli BL21 to MIC for acrAB and acrEF knock-out Escherichia coli BL21; assay type: functional
Morganella morganii = assay: Antibacterial activity against beta-lactamase producing Morganella morganii 25830 after 18 hrs by agar dilution assay; assay type: functional; conditions: Morganella morganii, 25830, 18 h
Proteus vulgaris = assay: Antibacterial activity against beta-lactamase producing Proteus vulgaris 29905 after 18 hrs by agar dilution assay; assay type: functional; conditions: Proteus vulgaris, 29905, 18 h
Escherichia coli [18] = assay: Antibacterial activity against acrAB and acrEF knock-out Escherichia coli BL21 by microbroth dilution assay; assay type: functional
Pseudomonas aeruginosa [19] = assay: Antimicrobial activity against Pseudomonas aeruginosa PAO1 after 18 hrs by microdilution method in presence of 40 uM iron; assay type: functional
Escherichia coli [20] = assay: Antibacterial activity against ESBL positive Escherichia coli 09-1 after 18 hrs by agar dilution assay; assay type: functional; conditions: 09-1, 18 h
Pseudomonas aeruginosa [21] = assay: Antibacterial activity against BL positive Pseudomonas aeruginosa 27853 after 18 hrs by agar dilution assay; assay type: functional; conditions: Pseudomonas aeruginosa, 27853, 18 h
Escherichia coli [22] = assay: Antibacterial activity against ESBL negative Escherichia coli 25922 after 18 hrs by agar dilution assay; assay type: functional; conditions: Escherichia coli, 25922, 18 h
Klebsiella pneumoniae [23] = assay: Antibacterial activity against ESBL negative Klebsiella pneumoniae 7 after 18 hrs by agar dilution assay; assay type: functional; conditions: Klebsiella pneumoniae, 7, 18 h
[24] = Pseudomonas aeruginosa, 27853, 18 h

Compound: CC1(C)[C@H](NC(=O)/C(=N\OCc2cccnc2)c2csc(N)n2)C(=O)N1S(=O)(=O)O
- MIC (Pseudomonas aeruginosa [1]; [24]): > 128 µg/mL
- MIC (Pseudomonas aeruginosa [2]): 128 µg/mL (≈ 282 µM)
- MIC (Escherichia coli [3]): 16 µg/mL (≈ 35.2 µM)
- MIC (Klebsiella pneumoniae [4]): 8 µg/mL (≈ 17.6 µM)
- MIC (Klebsiella aerogenes): 8 µg/mL (≈ 17.6 µM)
- MIC (Pseudomonas aeruginosa [5]; [24]): > 128 µg/mL
- MIC (Serratia marcescens): 8 µg/mL (≈ 17.6 µM)
- MIC (Pseudomonas aeruginosa [6]): > 128 µg/mL
- MIC (Klebsiella pneumoniae [7]): 32 µg/mL (≈ 70.4 µM)
- MIC (Pseudomonas aeruginosa [8]): > 128 µg/mL
- MIC (Pseudomonas aeruginosa [9]; PAO1, 18 h): > 128 µg/mL
- MIC (Escherichia coli [10]): 4 µg/mL (≈ 8.8 µM)
- MIC (Enterobacter cloacae): 4 µg/mL (≈ 8.8 µM)
- MIC (Pseudomonas aeruginosa [11]; [24]): > 128 µg/mL
- MIC (Klebsiella pneumoniae [12]): 8 µg/mL (≈ 17.6 µM)
- MIC (Pseudomonas aeruginosa [13]; PAO1, 18 h): > 128 µg/mL
- MIC (Pseudomonas aeruginosa [14]): > 128 µg/mL
- MIC (Citrobacter freundii): 4 µg/mL (≈ 8.8 µM)
- MIC (Proteus mirabilis): 32 µg/mL (≈ 70.4 µM)
- MIC (Salmonella typhi): 32 µg/mL (≈ 70.4 µM)
- MIC (Providencia rettgeri): 0.03 µg/mL (≈ 0.066 µM)
- MIC (Klebsiella pneumoniae [15]): 64 µg/mL (≈ 141 µM)
- MIC (Escherichia coli [16]): 32 µg/mL (≈ 70.4 µM)
- Selectivity ratio (Escherichia coli [17]): >16
- MIC (Morganella morganii): 0.5 µg/mL (≈ 1.1 µM)
- MIC (Proteus vulgaris): 0.25 µg/mL (≈ 0.55 µM)
- MIC (Escherichia coli [18]): 0.5 µg/mL (≈ 1.1 µM)
- MIC (Pseudomonas aeruginosa [19]; PAO1, 18 h): > 128 µg/mL
- MIC (Escherichia coli [20]): 4 µg/mL (≈ 8.8 µM)
- MIC (Pseudomonas aeruginosa [21]): > 128 µg/mL
- MIC (Escherichia coli [22]): 8 µg/mL (≈ 17.6 µM)
- MIC (Klebsiella pneumoniae [23]): 4 µg/mL (≈ 8.8 µM)

Compound: GENTAMICIN
- MIC (Pseudomonas aeruginosa [1]): 128 µg/mL
- MIC (Pseudomonas aeruginosa [5]): 1 µg/mL
- MIC (Pseudomonas aeruginosa [9]): 128 µg/mL
- MIC (Pseudomonas aeruginosa [11]): 1 µg/mL
- MIC (Pseudomonas aeruginosa [13]): 1 µg/mL
- MIC (Pseudomonas aeruginosa [19]): 128 µg/mL

Compound: CCN(CC)CC.C[C@H]1[C@H](NC(=O)/C(=N\OCc2ccc(C(=O)N/N=C/c3ccccc3O)cc2)c2csc(N)n2)C(=O)N1S(=O)(=O)O (relative stereo)
- MIC (Pseudomonas aeruginosa [1]; [24]): > 128 µg/mL
- MIC (Pseudomonas aeruginosa [2]): 4 µg/mL
- MIC (Escherichia coli [3]): 2 µg/mL
- MIC (Klebsiella pneumoniae [4]): 16 µg/mL
- MIC (Klebsiella aerogenes): 2 µg/mL
- MIC (Pseudomonas aeruginosa [5]; [24]): 128 µg/mL
- MIC (Serratia marcescens): 8 µg/mL
- MIC (Pseudomonas aeruginosa [6]): 128 µg/mL
- MIC (Klebsiella pneumoniae [7]): > 64 µg/mL
- MIC (Pseudomonas aeruginosa [8]): 4 µg/mL
- MIC (Pseudomonas aeruginosa [9]; PAO1, 18 h): 128 µg/mL
- MIC (Escherichia coli [10]): 64 µg/mL
- MIC (Enterobacter cloacae): 2 µg/mL
- MIC (Pseudomonas aeruginosa [11]; [24]): 128 µg/mL
- MIC (Klebsiella pneumoniae [12]): > 64 µg/mL
- MIC (Pseudomonas aeruginosa [13]; PAO1, 18 h): 128 µg/mL
- MIC (Pseudomonas aeruginosa [14]): > 128 µg/mL
- MIC (Citrobacter freundii): 4 µg/mL
- MIC (Proteus mirabilis): 8 µg/mL
- MIC (Salmonella typhi): 0.5 µg/mL
- MIC (Providencia rettgeri): ≤ 0.03 µg/mL
- MIC (Klebsiella pneumoniae [15]): > 64 µg/mL
- MIC (Escherichia coli [16]): 64 µg/mL
- Selectivity ratio (Escherichia coli [17]): >16
- MIC (Morganella morganii): 2 µg/mL
- MIC (Proteus vulgaris): 0.25 µg/mL
- MIC (Escherichia coli [18]): 2 µg/mL
- MIC (Pseudomonas aeruginosa [19]; PAO1, 18 h): > 128 µg/mL
- MIC (Escherichia coli [20]): 64 µg/mL
- MIC (Pseudomonas aeruginosa [21]): 8 µg/mL
- MIC (Escherichia coli [22]): 4 µg/mL
- MIC (Klebsiella pneumoniae [23]): 2 µg/mL

Compound: CC1(C)[C@H](NC(=O)/C(=N\OCc2ccccn2)c2csc(N)n2)C(=O)N1S(=O)(=O)O
- MIC (Pseudomonas aeruginosa [1]; [24]): 128 µg/mL
- MIC (Pseudomonas aeruginosa [2]): 32 µg/mL (≈ 70.4 µM)
- MIC (Escherichia coli [3]): 2 µg/mL (≈ 4.4 µM)
- MIC (Klebsiella pneumoniae [4]): 4 µg/mL (≈ 8.8 µM)
- MIC (Klebsiella aerogenes): 8 µg/mL (≈ 17.6 µM)
- MIC (Pseudomonas aeruginosa [5]; [24]): 128 µg/mL
- MIC (Serratia marcescens): 8 µg/mL (≈ 17.6 µM)
- MIC (Pseudomonas aeruginosa [6]): 128 µg/mL (≈ 282 µM)
- MIC (Klebsiella pneumoniae [7]): 16 µg/mL (≈ 35.2 µM)
- MIC (Pseudomonas aeruginosa [8]): 64 µg/mL (≈ 141 µM)
- MIC (Pseudomonas aeruginosa [9]; PAO1, 18 h): 64 µg/mL
- MIC (Escherichia coli [10]): 4 µg/mL (≈ 8.8 µM)
- MIC (Enterobacter cloacae): 1 µg/mL (≈ 2.2 µM)
- MIC (Pseudomonas aeruginosa [11]; [24]): 128 µg/mL
- MIC (Klebsiella pneumoniae [12]): 32 µg/mL (≈ 70.4 µM)
- MIC (Pseudomonas aeruginosa [13]; PAO1, 18 h): 128 µg/mL
- MIC (Pseudomonas aeruginosa [14]): 64 µg/mL (≈ 141 µM)
- MIC (Citrobacter freundii): 2 µg/mL (≈ 4.4 µM)
- MIC (Proteus mirabilis): 2 µg/mL (≈ 4.4 µM)
- MIC (Salmonella typhi): 32 µg/mL (≈ 70.4 µM)
- MIC (Providencia rettgeri): 0.06 µg/mL (≈ 0.132 µM)
- MIC (Klebsiella pneumoniae [15]): > 128 µg/mL
- MIC (Escherichia coli [16]): 2 µg/mL (≈ 4.4 µM)
- Selectivity ratio (Escherichia coli [17]): >16
- MIC (Morganella morganii): 0.5 µg/mL (≈ 1.1 µM)
- MIC (Proteus vulgaris): 0.125 µg/mL (≈ 0.275 µM)
- MIC (Escherichia coli [18]): ≤ 0.06 µg/mL
- MIC (Pseudomonas aeruginosa [19]; PAO1, 18 h): 64 µg/mL
- MIC (Escherichia coli [20]): 4 µg/mL (≈ 8.8 µM)
- MIC (Pseudomonas aeruginosa [21]): 64 µg/mL (≈ 141 µM)
- MIC (Escherichia coli [22]): 2 µg/mL (≈ 4.4 µM)
- MIC (Klebsiella pneumoniae [23]): 4 µg/mL (≈ 8.8 µM)
